Data from patent US10710978B2, “STK4 inhibitors for treatment of hematologic malignancies” (Dana-Farber Cancer Institute, Inc., priority 2015, dated 2020).
Like-named read-outs stand apart in the source and are kept apart here.

Legend:
Assay in all cases: KiNativ assay
Assay type in all cases: binding
[1] = target: AurB (Homo sapiens (Human), UniProt Q96GD4); settings: H929 live cell
Protocol: (§1) Biochemical IC50s of the compounds of the present disclosure against various kinases were measured in a KiNativ assay. Compounds were screened in duplicate at 10 μM in H929 live cell. IC50 was measured via Mass spectroscopy (MS).

[2] = target: PIP4K2C (Homo sapiens (Human), UniProt Q8TBX8); settings: H929 live cell
Protocol: as §1

[3] = target: GSK3A (Homo sapiens (Human), UniProt P49840); settings: H929 live cell
Protocol: as §1

[4] = target: RSKL1 (Homo sapiens (Human), UniProt Q96S38); settings: H929 live cell
Protocol: as §1

[5] = target: NDR1 (Homo sapiens (Human), UniProt Q15208); settings: H929 live cell
Protocol: as §1

[6] = tested on: KSR1, KSR2; settings: H929 live cell
Protocol: as §1

[7] = target: CHK2 (Homo sapiens (Human), UniProt O96017); settings: H929 live cell
Protocol: as §1

[8] = target: PRP4 (Homo sapiens (Human), UniProt Q13523); settings: H929 live cell
Protocol: as §1

[9] = tested on: RSK1 domain1, RSK2 domain1, RSK3 domain1; settings: H929 live cell
Protocol: as §1

[10] = target: PKCi (Homo sapiens (Human), UniProt P41743); settings: H929 live cell
Protocol: as §1

[11] = target: MST2 (Homo sapiens (Human), UniProt Q13188); settings: H929 live cell
Protocol: as §1

[12] = target: TYK2 domain2 (Homo sapiens (Human), UniProt P29597); settings: H929 live cell
Protocol: as §1

[13] = target: CDK7 (Homo sapiens (Human), UniProt P50613); settings: H929 live cell
Protocol: as §1

[14] = target: TLK1 (Homo sapiens (Human), UniProt Q9UKI8); settings: H929 live cell
Protocol: as §1

[15] = target: PI4KB (Homo sapiens (Human), UniProt Q9UBF8); settings: H929 live cell
Protocol: as §1

[16] = target: p70S6Kb (Homo sapiens (Human), UniProt Q9UBS0); settings: H929 live cell
Protocol: as §1

[17] = target: ATR (Homo sapiens (Human), UniProt Q13535); settings: H929 live cell, read-out: inhibition (10 μM)
Protocol: as §1

[18] = target: KHS1 (Homo sapiens (Human), UniProt Q9Y4K4); settings: H929 live cell
Protocol: as §1

[19] = target: Erk1 (Homo sapiens (Human), UniProt P27361); settings: H929 live cell
Protocol: as §1

[20] = target: p38a (Homo sapiens (Human), UniProt Q16539); settings: H929 live cell, read-out: % inhibition (range)
Protocol: as §1

[21] = target: SGK3 (Homo sapiens (Human), UniProt Q96BR1); settings: H929 live cell
Protocol: as §1

[22] = target: FRAP (Homo sapiens (Human), UniProt P42345); settings: H929 live cell
Protocol: as §1

[23] = tested on: PITSLRE; settings: H929 live cell
Protocol: as §1

[24] = tested on: TAO1, TAO3; settings: H929 live cell
Protocol: as §1

[25] = target: RSK2 domain2 (Homo sapiens (Human), UniProt P51812); settings: H929 live cell
Protocol: as §1

[26] = target: GCK (Homo sapiens (Human), UniProt Q12851); settings: H929 live cell, read-out: inhibition (10 μM)
Protocol: as §1

[27] = target: CaMKK2 (Homo sapiens (Human), UniProt Q96RR4); settings: H929 live cell
Protocol: as §1

[28] = target: MARK2 (Homo sapiens (Human), UniProt Q7KZI7); settings: H929 live cell
Protocol: as §1

[29] = tested on: AurA, AurB, AurC; settings: H929 live cell
Protocol: as §1

[30] = target: NuaK1 (Homo sapiens (Human), UniProt O60285); settings: H929 live cell
Protocol: as §1

[31] = target: JAK1 domain2 (Homo sapiens (Human), UniProt P23458); settings: H929 live cell
Protocol: as §1

[32] = tested on: FYN, SRC, YES; settings: H929 live cell
Protocol: as §1

[33] = target: p70S6K (Homo sapiens (Human), UniProt P23443); settings: H929 live cell
Protocol: as §1

[34] = target: LOK (Homo sapiens (Human), UniProt O94804); settings: H929 live cell
Protocol: as §1

Chain of NuaK1 (O60285 whole entry): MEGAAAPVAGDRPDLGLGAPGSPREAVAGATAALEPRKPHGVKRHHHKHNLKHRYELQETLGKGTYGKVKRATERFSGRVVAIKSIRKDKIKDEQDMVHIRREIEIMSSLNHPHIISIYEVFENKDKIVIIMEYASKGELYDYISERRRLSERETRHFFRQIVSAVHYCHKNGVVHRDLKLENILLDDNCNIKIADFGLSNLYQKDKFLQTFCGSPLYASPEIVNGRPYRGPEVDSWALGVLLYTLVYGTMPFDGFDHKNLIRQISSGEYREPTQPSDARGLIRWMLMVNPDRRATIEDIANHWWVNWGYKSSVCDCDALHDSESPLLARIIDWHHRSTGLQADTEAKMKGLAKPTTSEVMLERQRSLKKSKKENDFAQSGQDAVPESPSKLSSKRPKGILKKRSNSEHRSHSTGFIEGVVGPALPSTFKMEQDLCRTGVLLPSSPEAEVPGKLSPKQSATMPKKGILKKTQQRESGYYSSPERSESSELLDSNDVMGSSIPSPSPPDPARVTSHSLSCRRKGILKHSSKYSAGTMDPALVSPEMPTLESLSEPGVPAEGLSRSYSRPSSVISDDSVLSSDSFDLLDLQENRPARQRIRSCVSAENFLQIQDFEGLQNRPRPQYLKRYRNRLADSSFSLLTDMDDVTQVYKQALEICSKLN
Chain of RSK2 domain2 (P51812 whole entry, the tested form may be a part): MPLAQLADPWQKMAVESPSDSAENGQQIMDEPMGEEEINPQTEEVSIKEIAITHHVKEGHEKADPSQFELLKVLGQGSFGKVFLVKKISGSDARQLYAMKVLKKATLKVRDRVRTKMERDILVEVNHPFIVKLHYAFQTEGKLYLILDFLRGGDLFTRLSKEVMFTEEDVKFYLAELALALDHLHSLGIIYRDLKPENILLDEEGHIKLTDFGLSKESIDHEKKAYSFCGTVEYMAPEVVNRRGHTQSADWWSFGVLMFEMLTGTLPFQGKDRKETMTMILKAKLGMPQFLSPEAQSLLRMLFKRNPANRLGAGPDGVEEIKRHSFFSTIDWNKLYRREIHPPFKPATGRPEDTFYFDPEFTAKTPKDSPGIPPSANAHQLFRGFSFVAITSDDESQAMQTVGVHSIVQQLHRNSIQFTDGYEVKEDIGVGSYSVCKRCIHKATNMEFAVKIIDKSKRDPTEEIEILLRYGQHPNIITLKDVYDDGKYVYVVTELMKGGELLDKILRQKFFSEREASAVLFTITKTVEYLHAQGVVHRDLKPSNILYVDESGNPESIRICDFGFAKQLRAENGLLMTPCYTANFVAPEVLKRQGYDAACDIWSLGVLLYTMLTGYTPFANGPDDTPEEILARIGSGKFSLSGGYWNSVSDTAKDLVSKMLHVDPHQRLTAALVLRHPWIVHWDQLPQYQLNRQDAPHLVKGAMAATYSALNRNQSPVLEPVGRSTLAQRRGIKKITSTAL
Chain of AurB (Q96GD4 whole entry): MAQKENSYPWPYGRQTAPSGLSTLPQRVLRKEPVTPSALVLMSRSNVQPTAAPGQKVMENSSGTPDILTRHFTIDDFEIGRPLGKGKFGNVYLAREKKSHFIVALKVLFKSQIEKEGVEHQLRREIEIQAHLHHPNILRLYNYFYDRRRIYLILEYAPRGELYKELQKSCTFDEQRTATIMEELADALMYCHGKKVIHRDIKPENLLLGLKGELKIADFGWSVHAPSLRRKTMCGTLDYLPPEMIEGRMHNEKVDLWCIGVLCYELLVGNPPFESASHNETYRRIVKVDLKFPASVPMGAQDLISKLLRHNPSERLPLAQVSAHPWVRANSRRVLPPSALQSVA
Chain of SGK3 (Q96BR1 whole entry): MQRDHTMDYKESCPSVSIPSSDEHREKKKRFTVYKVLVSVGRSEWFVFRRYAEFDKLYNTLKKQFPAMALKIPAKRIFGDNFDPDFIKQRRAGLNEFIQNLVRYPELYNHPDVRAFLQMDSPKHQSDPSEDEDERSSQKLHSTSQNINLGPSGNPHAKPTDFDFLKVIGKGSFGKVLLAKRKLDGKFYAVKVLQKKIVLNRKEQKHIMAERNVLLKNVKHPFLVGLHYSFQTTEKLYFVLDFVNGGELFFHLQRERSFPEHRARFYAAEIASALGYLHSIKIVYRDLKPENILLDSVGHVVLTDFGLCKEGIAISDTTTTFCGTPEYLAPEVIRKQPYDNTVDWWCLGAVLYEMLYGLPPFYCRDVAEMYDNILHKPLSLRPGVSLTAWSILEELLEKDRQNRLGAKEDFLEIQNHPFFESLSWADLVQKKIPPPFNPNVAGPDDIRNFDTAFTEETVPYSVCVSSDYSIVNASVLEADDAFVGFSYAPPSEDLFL
Chain of PI4KB (Q9UBF8 whole entry): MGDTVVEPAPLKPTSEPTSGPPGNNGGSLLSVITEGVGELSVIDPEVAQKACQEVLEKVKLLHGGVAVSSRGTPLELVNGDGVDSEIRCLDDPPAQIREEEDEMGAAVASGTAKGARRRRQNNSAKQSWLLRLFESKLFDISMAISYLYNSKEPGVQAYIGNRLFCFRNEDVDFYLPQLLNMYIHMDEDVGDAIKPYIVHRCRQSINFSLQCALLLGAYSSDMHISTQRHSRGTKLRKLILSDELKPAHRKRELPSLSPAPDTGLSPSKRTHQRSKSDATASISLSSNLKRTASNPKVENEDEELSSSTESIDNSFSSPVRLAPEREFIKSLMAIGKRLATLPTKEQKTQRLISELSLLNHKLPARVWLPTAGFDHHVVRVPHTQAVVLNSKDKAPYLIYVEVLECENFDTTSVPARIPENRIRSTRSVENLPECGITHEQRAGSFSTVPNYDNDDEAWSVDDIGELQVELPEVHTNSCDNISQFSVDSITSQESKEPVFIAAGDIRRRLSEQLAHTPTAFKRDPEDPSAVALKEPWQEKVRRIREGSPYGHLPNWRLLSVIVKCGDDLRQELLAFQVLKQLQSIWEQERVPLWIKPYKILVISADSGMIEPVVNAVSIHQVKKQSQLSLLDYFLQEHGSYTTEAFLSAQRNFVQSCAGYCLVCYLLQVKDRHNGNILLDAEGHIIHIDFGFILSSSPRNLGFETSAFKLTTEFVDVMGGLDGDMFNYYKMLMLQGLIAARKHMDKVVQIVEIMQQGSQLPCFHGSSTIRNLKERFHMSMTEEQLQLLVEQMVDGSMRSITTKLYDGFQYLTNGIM
Chain of NDR1 (Q15208 whole entry): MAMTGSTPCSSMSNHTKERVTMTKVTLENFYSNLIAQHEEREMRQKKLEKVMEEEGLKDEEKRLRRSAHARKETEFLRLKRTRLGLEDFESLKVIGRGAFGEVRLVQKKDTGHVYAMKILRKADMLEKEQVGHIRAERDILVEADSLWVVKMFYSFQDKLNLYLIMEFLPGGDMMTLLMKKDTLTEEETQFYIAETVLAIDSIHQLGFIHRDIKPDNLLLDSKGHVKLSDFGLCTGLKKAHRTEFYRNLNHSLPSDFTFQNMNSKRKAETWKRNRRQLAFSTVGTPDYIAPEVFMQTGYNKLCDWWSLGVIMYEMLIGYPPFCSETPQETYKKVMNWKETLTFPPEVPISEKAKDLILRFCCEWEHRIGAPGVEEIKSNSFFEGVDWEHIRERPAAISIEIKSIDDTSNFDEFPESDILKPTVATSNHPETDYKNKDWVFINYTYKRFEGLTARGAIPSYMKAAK
Chain of CaMKK2 (Q96RR4 whole entry): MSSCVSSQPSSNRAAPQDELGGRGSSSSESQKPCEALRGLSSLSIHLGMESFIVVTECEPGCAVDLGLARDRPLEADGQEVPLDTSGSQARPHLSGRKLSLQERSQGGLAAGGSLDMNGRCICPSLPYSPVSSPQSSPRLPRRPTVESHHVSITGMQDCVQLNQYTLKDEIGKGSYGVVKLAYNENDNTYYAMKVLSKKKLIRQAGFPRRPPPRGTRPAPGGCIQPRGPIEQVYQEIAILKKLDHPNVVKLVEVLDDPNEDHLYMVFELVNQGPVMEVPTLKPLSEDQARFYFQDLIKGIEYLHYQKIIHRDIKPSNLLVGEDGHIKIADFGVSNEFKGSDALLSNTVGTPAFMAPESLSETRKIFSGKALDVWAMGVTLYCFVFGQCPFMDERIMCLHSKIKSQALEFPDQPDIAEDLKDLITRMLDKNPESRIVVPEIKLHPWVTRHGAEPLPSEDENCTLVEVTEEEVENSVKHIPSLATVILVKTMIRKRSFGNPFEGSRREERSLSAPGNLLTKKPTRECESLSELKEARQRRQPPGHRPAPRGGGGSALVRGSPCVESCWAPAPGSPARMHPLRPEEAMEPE
Chain of PIP4K2C (Q8TBX8 whole entry): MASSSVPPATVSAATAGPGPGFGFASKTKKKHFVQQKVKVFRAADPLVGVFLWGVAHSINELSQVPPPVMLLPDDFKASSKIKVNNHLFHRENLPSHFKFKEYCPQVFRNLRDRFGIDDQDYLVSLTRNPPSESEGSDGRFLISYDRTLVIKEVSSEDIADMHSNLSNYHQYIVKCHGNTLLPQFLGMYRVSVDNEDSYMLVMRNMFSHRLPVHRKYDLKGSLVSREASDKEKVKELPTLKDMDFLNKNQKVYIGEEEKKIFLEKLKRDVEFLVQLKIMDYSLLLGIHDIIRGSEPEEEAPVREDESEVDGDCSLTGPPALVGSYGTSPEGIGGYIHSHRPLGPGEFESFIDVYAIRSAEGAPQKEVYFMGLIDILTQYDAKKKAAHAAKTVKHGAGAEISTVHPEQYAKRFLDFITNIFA
Chain of GSK3A (P49840 whole entry): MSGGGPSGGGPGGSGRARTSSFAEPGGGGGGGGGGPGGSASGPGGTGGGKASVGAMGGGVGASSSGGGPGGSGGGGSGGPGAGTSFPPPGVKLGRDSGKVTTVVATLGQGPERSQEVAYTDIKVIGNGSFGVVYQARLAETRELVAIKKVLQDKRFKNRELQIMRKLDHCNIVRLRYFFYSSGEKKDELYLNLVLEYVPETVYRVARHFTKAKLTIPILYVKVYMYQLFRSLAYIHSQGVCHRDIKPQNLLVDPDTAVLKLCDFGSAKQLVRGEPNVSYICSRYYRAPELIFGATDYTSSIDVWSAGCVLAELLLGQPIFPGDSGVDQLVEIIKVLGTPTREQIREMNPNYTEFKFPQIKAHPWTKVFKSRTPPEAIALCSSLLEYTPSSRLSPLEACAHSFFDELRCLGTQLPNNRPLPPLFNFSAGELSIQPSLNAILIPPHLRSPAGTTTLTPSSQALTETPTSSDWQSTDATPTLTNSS

Nc1ncc(-c2cccc([N+](=O)[O-])c2F)cc1-c1ccc2c(c1)CCNC2=O [Compound I-9, 6-(2-amino-5-(2-fluoro-3-nitrophenyl)pyridin-3-yl)-3,4-dihydroisoquinolin-1(2H)-one]
inhibition at 10 µM ([1]; read-out: % inhibition (range)): 50 to 75%
inhibition at 10 µM ([1]; read-out: inhibition (10 μM)): 53.4%
inhibition at 10 µM ([2]; read-out: % inhibition (range)): 50 to 75%
inhibition at 10 µM ([2]; read-out: inhibition (10 μM)): 65.7%
inhibition at 10 µM ([3]; read-out: % inhibition (range)): > 90%
inhibition at 10 µM ([3]; read-out: inhibition (10 μM)): 97.2%
inhibition at 10 µM ([4]; read-out: % inhibition (range)): 0%
inhibition at 10 µM ([4]; read-out: inhibition (10 μM)): 0.2%
inhibition at 10 µM ([5]; read-out: % inhibition (range)): 0%
inhibition at 10 µM ([5]; read-out: inhibition (10 μM)): 3.5%
% inhibition (range) ([6]; 10 μM): 0.0%
inhibition (10 μM) [6]: −51.3%
inhibition at 10 µM ([7]; read-out: % inhibition (range)): 75 to 90%
inhibition at 10 µM ([7]; read-out: inhibition (10 μM)): 80.9%
inhibition at 10 µM ([8]; read-out: % inhibition (range)): 50 to 75%
inhibition at 10 µM ([8]; read-out: inhibition (10 μM)): 70.2%
% inhibition (range) ([9]; 10 μM): 50-75%
inhibition (10 μM) [9]: 58.7%
inhibition at 10 µM ([10]; read-out: % inhibition (range)): 0%
inhibition at 10 µM ([10]; read-out: inhibition (10 μM)): 18.5%
inhibition at 10 µM ([11]; read-out: % inhibition (range)): 75 to 90%
inhibition at 10 µM ([11]; read-out: inhibition (10 μM)): 88.9%
inhibition at 10 µM ([12]; read-out: % inhibition (range)): 0%
inhibition at 10 µM ([12]; read-out: inhibition (10 μM)): 29.9%
inhibition at 10 µM ([13]; read-out: % inhibition (range)): 75 to 90%
inhibition at 10 µM ([13]; read-out: inhibition (10 μM)): 78.2%
inhibition at 10 µM ([14]; read-out: % inhibition (range)): 0%
inhibition at 10 µM ([14]; read-out: inhibition (10 μM)): 28.8%
inhibition at 10 µM ([15]; read-out: % inhibition (range)): 0%
inhibition at 10 µM ([15]; read-out: inhibition (10 μM)): -13.8%
inhibition at 10 µM ([16]; read-out: % inhibition (range)): 0%
inhibition at 10 µM ([16]; read-out: inhibition (10 μM)): -84.5%
inhibition at 10 µM [17]: 37.5%
inhibition at 10 µM ([18]; read-out: % inhibition (range)): 75 to 90%
inhibition at 10 µM ([18]; read-out: inhibition (10 μM)): 79.5%
inhibition at 10 µM ([19]; read-out: % inhibition (range)): 50 to 75%
inhibition at 10 µM ([19]; read-out: inhibition (10 μM)): 50.5%
inhibition at 10 µM [20]: 75 to 90%
inhibition at 10 µM ([21]; read-out: % inhibition (range)): 50 to 75%
inhibition at 10 µM ([21]; read-out: inhibition (10 μM)): 51.6%
inhibition at 10 µM ([22]; read-out: % inhibition (range)): 50 to 75%
inhibition at 10 µM ([22]; read-out: inhibition (10 μM)): 72.7%
% inhibition (range) ([23]; 10 μM): 35-50%
inhibition (10 μM) [23]: 38.9%
% inhibition (range) ([24]; 10 μM): 50-75%
inhibition (10 μM) [24]: 67.5%
inhibition at 10 µM ([25]; read-out: % inhibition (range)): 0%
inhibition at 10 µM ([25]; read-out: inhibition (10 μM)): -23.2%
inhibition at 10 µM [26]: 91.5%
inhibition at 10 µM ([27]; read-out: % inhibition (range)): 50 to 75%
inhibition at 10 µM ([27]; read-out: inhibition (10 μM)): 71.8%
inhibition at 10 µM ([28]; read-out: % inhibition (range)): 50 to 75%
inhibition at 10 µM ([28]; read-out: inhibition (10 μM)): 63.5%
% inhibition (range) ([29]; 10 μM): 50-75%
inhibition (10 μM) [29]: 66.2%
inhibition (10 μM) [30]: >90%
inhibition at 10 µM ([30]; read-out: % inhibition (range)): > 90%
inhibition at 10 µM ([30]; read-out: inhibition (10 μM)): 91%
inhibition at 10 µM ([31]; read-out: % inhibition (range)): 0%
inhibition at 10 µM ([31]; read-out: inhibition (10 μM)): -4.9%
% inhibition (range) ([32]; 10 μM): 0.0%
inhibition (10 μM) [32]: 28.3%
inhibition at 10 µM ([33]; read-out: % inhibition (range)): 0%
inhibition at 10 µM ([33]; read-out: inhibition (10 μM)): -71.5%
inhibition at 10 µM ([34]; read-out: % inhibition (range)): > 90%
inhibition at 10 µM ([34]; read-out: inhibition (10 μM)): 98.5%
